Measurements taken from publication PMC11347369, “Synthesis and antibacterial action of 3’,6’-disubstituted spectinomycins” (The Journal of Antibiotics, 2024).
≈ marks a conversion by molar mass, not a printed value. Structures can show the parent of a compound that is named as a salt. Where two headings read alike, the source gives them in different places.

How the values were obtained:
[1] = tested on: K. pneumoniae ATCC 700603; test: MIC broth microdilution, K. pneumoniae; type: cell-based, Klebsiella pneumoniae; conditions: Klebsiella pneumoniae, ATCC700603, read-out: Minimum Inhibitory Concentration
E. faecium ATCC 19434 = test: MIC broth microdilution, E. faecium; type: cell-based; conditions: Enterococcus faecium
[2] = tested on: M. abscessus ATCC 19977 ∆2780c; test: microbe, parasite or virus in culture; type: cell-based, Mycobacterium abscessus; conditions: Mycobacteroides abscessus, ATCC19977, 72 h, read-out: ∆2780c MIC
M. abscessus ATCC 19977 [3] = tested on: M. abscessus ATCC 19977
S. pneumoniae R6 = test: MIC broth microdilution, S. pneumoniae; type: cell-based; conditions: Streptococcus pneumoniae, read-out: Minimum Inhibitory Concentration
M. abscessus ATCC 19977 [4] = test: microbe, parasite or virus in culture; conditions: Mycobacteroides abscessus, ATCC19977, 72 h, read-out: WT MIC
[5] = tested on: S. epidermidis ATCC 14990; test: MIC broth microdilution, S. epidermidis; type: cell-based; conditions: Staphylococcus epidermidis, ATCC14990, read-out: Minimum Inhibitory Concentration
S. pyogenes ATCC 700294 = test: MIC broth microdilution, S. pyogenes; type: cell-based; conditions: Streptococcus pyogenes
P. aeruginosa ATCC 15692 = test: MIC broth microdilution, P. aeruginosa; type: cell-based, Pseudomonas aeruginosa; conditions: Pseudomonas aeruginosa
E. coli K12 ∆tolC = test: microbe, parasite or virus in culture; type: cell-based; conditions: Escherichia coli, read-out: Minimum Inhibitory Concentration
[6] = tested on: M. tuberculosis H37Rv ∆1258c; test: microbe, parasite or virus in culture; type: cell-based; conditions: Mycobacterium tuberculosis, 168 h
S. aureus USA300 = test: MIC broth microdilution, S. aureus; type: cell-based; conditions: Staphylococcus aureus, USA300, read-out: Minimum Inhibitory Concentration
M. tuberculosis H37Rv [7] = test: microbe, parasite or virus in culture; conditions: Mycobacterium tuberculosis, 168 h, read-out: WT MIC
E. faecalis ATCC 29212 = test: MIC broth microdilution, E. faecalis; type: cell-based; conditions: Enterococcus faecalis
[8] = tested on: M. smegmatis strain MC^2 155; test: MIC broth microdilution, M. smegmatis; type: cell-based, Mycobacterium smegmatis; conditions: Mycolicibacterium smegmatis, MC^2155, 72 h, read-out: WT MIC
A. baumannii ATCC 19606 = test: MIC broth microdilution, A. baumannii; type: cell-based, Acinetobacter baumannii; conditions: Acinetobacter baumannii
E. coli K12 [9] = conditions: E. coli K12 MIC versus K12 ∆tolC MIC
M. tuberculosis H37Rv [10] = tested on: M. tuberculosis H37Rv
[11] = target: T1, M. smegmatis ribosomes (strain SZ380) (Mycolicibacterium smegmatis, UniProt A0QSG6); test: Mycobacterial cell-free translation inhibition assay; type: biochemical, Mycobacterium smegmatis
T1 construct: S30 extracts were prepared by addition of dithiothreitol (DTT) to 1 mM and centrifugation; endogenous in cells; host or cells: M. smegmatis strain SZ380, S30 cell extract
Method: Mycobacterial cell-free translation inhibition assays were performed as described previously. In brief, M. smegmatis strain SZ380 bacterial cells were disrupted and emulsified with a microfluidizer processor (Microfluidics, Westwood, MA, USA) at 25,000 lb/in^2. S30 extracts were prepared by addition of dithiothreitol (DTT) to 1 mM and centrifugation at 30,000 × g at 4 °C. Translation reaction mixtures containing either test article or DMSO vehicle control and 4 μl of the S30 extract, 0.2 mM amino acid mix, 6 μg tRNA (Sigma), 0.4 μg hFluc mRNA, 0.3 μl protease inhibitor (complete, EDTA-free, Roche), 12 U RNAse inhibitor (Ribolock, Thermo Scientific), 6 μl S30 premix without amino acids (Promega), plus water to a final reaction volume of 15 μl were incubated for 1 h at 37 °C. The reaction was stopped on ice before adding 75 μl of luciferase assay reagent (Promega) and recording of luminescence. Regression analysis and IC50 calculations were performed using GraphPad Prism version 9.3.1 by using the equation [log(inhibitor) vs. response–Variable slope (four parameters)] with the fitting method: least squares (ordinary) fit. Y = Bottom + (Top-Bottom)/(1 + 10^((X-LogIC50))).

E. coli K12 [12] = test: microbe, parasite or virus in culture; conditions: Escherichia coli, K12, read-out: Minimum Inhibitory Concentration
[13] = target: T1, M. smegmatis ribosomes (strain SZ380)
[14] = ATCC19434, read-out: Minimum Inhibitory Concentration
[15] = ATCC700294, read-out: Minimum Inhibitory Concentration
[16] = ATCC15692, read-out: Minimum Inhibitory Concentration
[17] = ATCC29212, read-out: Minimum Inhibitory Concentration
[18] = ATCC19606, read-out: Minimum Inhibitory Concentration
[19] = cell-free translation, M. smegmatis SZ380 S30 extract, luciferase readout, read-out: Ribo. IC50
[20] = previously reported; read-out: Ribo. IC50; cited from earlier work

T1 sequence (A0QSG6 whole entry): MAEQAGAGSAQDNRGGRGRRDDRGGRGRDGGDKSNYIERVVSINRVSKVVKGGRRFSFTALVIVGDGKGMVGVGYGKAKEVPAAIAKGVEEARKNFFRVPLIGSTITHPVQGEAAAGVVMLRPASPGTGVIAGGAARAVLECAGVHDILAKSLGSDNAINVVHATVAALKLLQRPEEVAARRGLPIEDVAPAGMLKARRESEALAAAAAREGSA

Compound | MIC [1] | MIC (E. faecium ATCC 19434; [14]) | MIC [2] | Efflux Ratio (M. abscessus ATCC 19977 [3]) | MIC (S. pneumoniae R6) | MIC (M. abscessus ATCC 19977 [4]) | MIC [5] | MIC (S. pyogenes ATCC 700294; [15]) | MIC (P. aeruginosa ATCC 15692; [16]) | MIC (E. coli K12 ∆tolC) | MIC [6] | MIC (S. aureus USA300) | MIC (M. tuberculosis H37Rv [7]) | MIC (E. faecalis ATCC 29212; [17]) | MIC [8] | MIC (A. baumannii ATCC 19606; [18]) | E. coli Efflux Ratio (E. coli K12 [9]) | Efflux Ratio (M. tuberculosis H37Rv [10]) | IC50 [11, 19] | MIC (E. coli K12 [12]) | other results
CCCCC1CC(O)(CN)C2(O)OC3C(NC)C(O)C(NC)C(O)C3OC2O1 [AmTroSPC (13), 3’-(R)-Aminomethyl-6’-propyl-dihydrospectinomycin] | > 64 µg/mL | > 64 µg/mL | 64 µg/mL (≈ 158 µM) | 1 | 16 to 32 µg/mL (≈ 39.5 to 78.9 µM) | 64 µg/mL (≈ 158 µM) | > 64 µg/mL | 16 µg/mL (≈ 39.5 µM) | > 64 µg/mL | 32 µg/mL (≈ 78.9 µM) | 8 µg/mL (≈ 19.7 µM) | > 64 µg/mL | 64 µg/mL (≈ 158 µM) | > 64 µg/mL | 128 µg/mL (≈ 316 µM) | > 64 µg/mL | >2 | 8 | 2710 nM | > 64 µg/mL | –
CCCC[C@@H]1C[C@@H](N)[C@]2(O)O[C@@H]3[C@@H](NC)[C@@H](O)[C@@H](NC)[C@H](O)[C@H]3O[C@@H]2O1 [Amino TroSPC (11), 3’-(R)-Amino-3’-deoxy-6’-propyl-dihydrospectinomycin trihydrochloride] | > 64 µg/mL | > 64 µg/mL | 64 µg/mL | 1 | 64 µg/mL | 64 µg/mL | > 64 µg/mL | 32 µg/mL | > 64 µg/mL | 32 µg/mL | 2 µg/mL | > 64 µg/mL | 16 µg/mL | > 64 µg/mL | 32 µg/mL | > 64 µg/mL | >2 | 8 | 640 nM | > 64 µg/mL | –
CN[C@@H]1[C@H](O)[C@H](NC)[C@H]2O[C@]3(O)[C@H](O[C@@H]2[C@H]1O)O[C@H](C)C[C@H]3NC(=O)Cc1ccccn1 [SPA (3), reference compound] | – | – | – | 4 | – | – | – | – | – | – | 4 µg/mL (≈ 8.84 µM) | – | 2 µg/mL (≈ 4.42 µM) | – | – | – | – | – | – | – | IC50 ([13]; converted from µg/mL to µM from what was previously reported; read-out: Ribo. IC50; cited from earlier work): 1.8 µM
CN[C@@H]1[C@H](O)[C@H](NC)[C@H]2O[C@@]3(O)C(=O)C[C@@H](C)O[C@H]3O[C@@H]2[C@H]1O [SPC (1), spectinomycin] | 512 µg/mL (≈ 1540 µM) | – | 16 µg/mL (≈ 48.1 µM) | 32 | 16 µg/mL (≈ 48.1 µM) | 512 µg/mL (≈ 1540 µM) | 256 to 512 µg/mL (≈ 770 to 1540 µM) | – | – | 64 µg/mL (≈ 193 µM) | 4 µg/mL (≈ 12 µM) | 512 µg/mL (≈ 1540 µM) | 64 µg/mL (≈ 193 µM) | – | – | – | 2 | 16 | – | 128 µg/mL (≈ 385 µM) | MIC (E. faecium ATCC 19434; ATCC19434, E. faecium ATCC 19434, read-out: Minimum Inhibitory Concentration): 256 µg/mL (≈ 770 µM); MIC (S. pyogenes ATCC 700294; ATCC700294, S. pyogenes ATCC 700294, read-out: Minimum Inhibitory Concentration): 32 µg/mL (≈ 96.3 µM); MIC (P. aeruginosa ATCC 15692; ATCC15692, P. aeruginosa ATCC 15692, read-out: Minimum Inhibitory Concentration): 1020 µg/mL (≈ 3080 µM); MIC (E. faecalis ATCC 29212; ATCC29212, E. faecalis ATCC 29212, read-out: Minimum Inhibitory Concentration): 256 µg/mL (≈ 770 µM); MIC ([8]; M. smegmatis strain MC^2 155, 3 days): 64 µg/mL (≈ 193 µM); MIC (A. baumannii ATCC 19606; ATCC19606, A. baumannii ATCC 19606, read-out: Minimum Inhibitory Concentration): > 1020 µg/mL; IC50 ([13]; read-out: Ribo. IC50; previously reported; cited from earlier work): 0.8 µM
CCCC[C@@H]1C[C@@H](NC(=O)Cc2ccccn2)[C@]2(O)O[C@@H]3[C@@H](NC)[C@@H](O)[C@@H](NC)[C@H](O)[C@H]3O[C@@H]2O1 [TroSPA (4), 3′-Deoxy-3′(R)-[(pyridin-2-yl)acetylamino]-6’-propyl-dihydrospectinomycin dihydrochloride] | > 64 µg/mL | > 64 µg/mL | 16 µg/mL | 4 | 16 µg/mL | 64 µg/mL | > 64 µg/mL | 8 µg/mL | > 64 µg/mL | 32 µg/mL | 1 µg/mL | > 64 µg/mL | 2 µg/mL | > 64 µg/mL | 32 µg/mL | > 64 µg/mL | >2 | 2 | – | > 64 µg/mL | IC50 [11]: 2450 nM
CN[C@@H]1[C@H](O)[C@H](NC)[C@H]2O[C@]3(O)[C@H](O[C@@H]2[C@H]1O)O[C@H](C)C[C@@]3(O)CNCc1ccc(F)cc1 [bAmSPC (5), reference compound] | – | – | 8 µg/mL (≈ 17 µM) | 16 | – | 128 µg/mL (≈ 271 µM) | – | – | – | – | 2 µg/mL (≈ 4.24 µM) | – | 16 µg/mL (≈ 33.9 µM) | – | – | – | – | 8 | – | – | IC50 [13, 20]: 1.18 µM
CCCCC1CC(O)(CNCc2ccc(F)cc2)C2(O)OC3C(NC)C(O)C(NC)C(O)C3OC2O1 [bAmTroSPC (6), 3′(R)-[(4-Fluorobenzyl)aminomethyl]-6’-propyl-dihydrospectinomycin trihydrochloride] | > 64 µg/mL | 32 µg/mL | 64 µg/mL | 1 | 4 µg/mL | 64 µg/mL | 16 µg/mL | 2 µg/mL | > 64 µg/mL | 4 to 8 µg/mL | 1 µg/mL | 64 µg/mL | 8 µg/mL | 32 µg/mL | 64 µg/mL | > 64 µg/mL | 4–8 | 8 | 2490 nM | 32 µg/mL | –
CN[C@@H]1[C@H](O)[C@H](NC)[C@H]2O[C@]3(O)[C@H](O[C@@H]2[C@H]1O)O[C@H](C)C[C@@]3(O)CNCCc1ccc(F)cc1 [eAmSPC (7), reference compound] | – | – | 1 µg/mL (≈ 2.06 µM) | 4 | – | 4 µg/mL (≈ 8.24 µM) | – | – | – | – | 0.5 µg/mL (≈ 1.03 µM) | – | 2 µg/mL (≈ 4.12 µM) | – | 4 µg/mL (≈ 8.24 µM) | – | – | 4 | – | – | IC50 [13, 20]: 1.01 µM
CCCCC1CC(O)(CNCCc2ccc(F)cc2)C2(O)OC3C(NC)C(O)C(NC)C(O)C3OC2O1 [eAmTroSPC (8), 3′(R)-[(4-Fluorophenylethyl)aminomethyl]-6’-propyl-dihydrospectinomycin trihydrochloride] | > 64 µg/mL | 32 µg/mL | 8 µg/mL | 1 | 8 µg/mL | 8 µg/mL | 8 µg/mL | 4 µg/mL | > 64 µg/mL | 4 to 8 µg/mL | 0.25 µg/mL | 64 µg/mL | 2 µg/mL | 32 µg/mL | 8 µg/mL | > 64 µg/mL | 8–16 | 8 | – | 64 µg/mL | IC50 [11]: 2310 nM
